The assay concerns the target T1, human TAS1R2-WT/TAS1R3-R813K (Homo sapiens, UniProt Q7RTX0+Q8TE23, R813K).
T1 construct: expressed in transfected cells; host or cells: HEK293T stably expressing Gα16gust44
T1 sequence (Q8TE23 20-839): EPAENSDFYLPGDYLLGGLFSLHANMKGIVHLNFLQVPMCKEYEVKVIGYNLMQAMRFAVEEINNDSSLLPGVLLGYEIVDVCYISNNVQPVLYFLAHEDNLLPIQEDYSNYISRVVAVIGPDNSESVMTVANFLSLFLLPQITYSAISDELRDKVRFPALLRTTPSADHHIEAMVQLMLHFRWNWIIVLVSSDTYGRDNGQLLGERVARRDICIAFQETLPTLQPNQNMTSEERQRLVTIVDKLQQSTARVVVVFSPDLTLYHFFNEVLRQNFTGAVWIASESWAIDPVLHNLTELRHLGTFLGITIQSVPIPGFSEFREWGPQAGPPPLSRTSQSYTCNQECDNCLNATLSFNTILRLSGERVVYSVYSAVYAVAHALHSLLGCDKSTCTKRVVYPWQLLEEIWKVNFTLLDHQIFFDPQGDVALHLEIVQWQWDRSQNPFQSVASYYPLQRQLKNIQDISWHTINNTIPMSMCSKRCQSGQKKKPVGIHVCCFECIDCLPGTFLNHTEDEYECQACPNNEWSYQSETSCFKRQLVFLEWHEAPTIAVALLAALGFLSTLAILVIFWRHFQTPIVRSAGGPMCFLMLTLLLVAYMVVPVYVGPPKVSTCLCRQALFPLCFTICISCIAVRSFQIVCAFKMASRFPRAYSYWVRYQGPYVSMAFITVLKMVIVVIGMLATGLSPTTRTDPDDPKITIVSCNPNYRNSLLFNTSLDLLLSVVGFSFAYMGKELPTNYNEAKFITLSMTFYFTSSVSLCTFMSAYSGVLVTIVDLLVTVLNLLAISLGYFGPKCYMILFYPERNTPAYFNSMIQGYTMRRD
T1 sequence (Q7RTX0 21-852 R813K): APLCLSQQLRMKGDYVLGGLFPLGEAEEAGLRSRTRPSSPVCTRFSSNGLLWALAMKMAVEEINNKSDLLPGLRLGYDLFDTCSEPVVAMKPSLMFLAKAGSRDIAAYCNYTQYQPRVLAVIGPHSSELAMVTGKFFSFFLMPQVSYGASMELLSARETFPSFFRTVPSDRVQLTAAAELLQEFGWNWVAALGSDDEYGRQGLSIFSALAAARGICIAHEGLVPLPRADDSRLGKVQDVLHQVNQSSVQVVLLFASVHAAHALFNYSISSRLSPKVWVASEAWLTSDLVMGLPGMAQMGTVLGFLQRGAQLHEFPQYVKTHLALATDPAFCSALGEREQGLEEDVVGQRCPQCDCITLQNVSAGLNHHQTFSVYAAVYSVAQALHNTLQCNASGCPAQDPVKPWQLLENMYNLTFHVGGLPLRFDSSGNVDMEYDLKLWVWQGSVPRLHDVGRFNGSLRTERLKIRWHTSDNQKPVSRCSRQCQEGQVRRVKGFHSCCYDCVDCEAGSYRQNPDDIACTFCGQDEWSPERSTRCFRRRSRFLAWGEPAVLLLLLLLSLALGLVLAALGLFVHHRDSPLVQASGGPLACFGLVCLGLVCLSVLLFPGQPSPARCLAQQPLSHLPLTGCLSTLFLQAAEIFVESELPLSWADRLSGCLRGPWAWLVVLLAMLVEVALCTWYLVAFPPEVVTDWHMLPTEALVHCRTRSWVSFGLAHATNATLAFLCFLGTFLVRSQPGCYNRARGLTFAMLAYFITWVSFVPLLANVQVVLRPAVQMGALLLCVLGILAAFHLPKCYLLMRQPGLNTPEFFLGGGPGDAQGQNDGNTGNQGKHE
Briefly: Calcium mobilisation assay, TAS1R2-WT with TAS1R3 variant R813K. Format: cell-based. As to conditions: for Max ΔF/F0: maximal signal amplitude. The text has this: The coding sequences for TAS1R2 and TAS1R3 were commercially synthesised, and the human codon was optimised for expression in human cells. The coding sequences of human TAS1R2 and TAS1R3 were subcloned and inserted into the mammalian expression vectors pcDNA6/myc-HisA and pcDNA4/myc-HisA (Invitrogen; Thermo Fisher Scientific; Illkirch, France) between the EcoRI and NotI restriction sites, generating the plasmids pcDNA6-TAS1R2 and pcDNA4-TAS1R3, respectively. To increase protein expression in mammalian cells, an upstream start codon was used, which was a sequence called MAX, corresponding to the QBI SP163 element also described in pcDNA4-HisMax (Invitrogen; Thermo Fisher Scientific; Illkirch, France). To measure the expression level of the receptor by immunohistochemistry, we used the FLAG sequence ([…]) in the C-terminal position, which encodes the FLAG tag epitope. SNP variants of TAS1R2 and TAS1R3 were constructed based on […], respectively, using site-directed mutagenesis (Genewiz; Leipzig, Germany).
The HEK293T cells were kindly provided by Jay P. Slack (Givaudan Flavors Corporation; Cincinnati, OH, USA). HEK293T cells stably transfected with Gα16gust44 [43, 67] were seeded in poly-D-lysine-coated clear-bottom black 96-well plates (0.35 × 10^5 cells/well) in high-glucose DMEM supplemented with 2 mM GlutaMAX, 10% dialysed foetal bovine serum with penicillin/streptomycin and G418 (400 μg/mL) at 37 °C and 6.3% CO2 in a humidified atmosphere as previously reported. […] As a negative control, HEK293T cells were mock-transfected with the empty expression vector. After a further 24 h of incubation, the HEK293T cells were washed with C1 buffer (130 mM NaCl, 5 mM KCl, 10 mM HEPES pH 7.4 and 2 mM CaCl2). The 96-well plates containing the cells were then stimulated with sweet-tasting compounds. […] Different concentration ranges were tested depending on the sweet compound injected. The Ca^2+ changes were expressed as fractional changes in fluorescent light intensity: ΔF/F = (F − F0)/F0, where F was the fluorescent light intensity at each point, and F0 was the value of emitted fluorescent light prior to stimulus application. To calculate dose–response relationships, the changes in fluorescence upon stimulus application were averaged, mock-subtracted and baseline-corrected. The dose–response data obtained were adjusted using a 4-parameter logistic equation. The half-maximal effective concentrations (EC50 values) and maximal signal amplitudes were calculated using SigmaPlot software (version 15.0) (Systat Software; San Jose, CA, USA).
For in vitro calcium mobilisation assay performed on hTAS1R2-SNPs, hTAS1R3-SNPs and mTAS1R3-I60T, 6 to 7 concentrations were tested for each sweet compound, plus buffer alone. All concentration–receptor combinations were measured in duplicate, and each experiment was repeated at least 4 times (8 wells/concentration). Results were expressed for each concentration as ΔF/F mean ± SEM and represented as dose–response curves.
In general terms: Calcium assays in cells follow changes in intracellular calcium, usually with a dye or a luminescent sensor.

Like-named read-outs stand apart in the source and are kept apart here. No end group written: not given here.

One may read the EC50 as the concentration giving half of the maximal effect.

For `C=C(C)[C@@H]1CC=C(/C=N/O)CC1` [Perillartine, perillartine], the “R1 = Variant EC50/WT EC50” value was determined as 0.8 and the “Max ΔF/F0” value was 1.28 ± 0.16. Moreover, the EC50 (read-out: EC50) is 10.4 ± 3.6 µM.

`O=S(=O)(O)NC1CCCCC1` [Cyclamate, cyclamate]: the EC50 (read-out: EC50) came to 1330 ± 22 µM.

Consider `C=C1C[C@@]23CC[C@H]4[C@@](C)(CCC[C@@]4(C)C(=O)O[C@@H]4O[C@H](CO)[C@@H](O)[C@H](O[C@@H]5O[C@H](CO)[C@@H](O)[C@H](O)[C@H]5O)[C@H]4O[C@@H]4O[C@H](CO)[C@@H](O)[C@H](O)[C@H]4O)[C@@H]2CC[C@]1(O[C@@H]1O[C@H](CO)[C@@H](O)[C@H](O[C@@H]2O[C@H](CO)[C@@H](O)[C@H](O)[C@H]2O)[C@H]1O[C@@H]1O[C@H](CO)[C@@H](O)[C@H](O)[C@H]1O)C3` [Rebaudioside M, rebaudioside M], for which the “R1 = Variant EC50/WT EC50” value is 0.7 and the “Max ΔF/F0” value worked out at 1.18 ± 0.06. Besides, for the setting “read-out: EC50”, the EC50 worked out at 27.4 ± 3.4 µM.

Regarding `OC[C@H]1O[C@H](O[C@]2(CCl)O[C@H](CCl)[C@@H](O)[C@@H]2O)[C@H](O)[C@@H](O)[C@H]1Cl` [Sucralose], the “R1 = Variant EC50/WT EC50” value is 1.1 and the “Max ΔF/F0” value was determined as 0.90 ± 0.03. Moreover, the concentration for a half-maximal effect (EC50) (read-out: EC50) is 120 ± 9 µM.

Turning to `CC1=CC(=O)NS(=O)(=O)O1` [Acesulfame K, acesulfame K], the “R1 = Variant EC50/WT EC50” value is reported as 0.7 and the “Max ΔF/F0” value was 0.40 ± 0.01. Also, under “read-out: EC50”, the EC50 worked out at 433 ± 34 µM.

Consider “brazzein (QDKCKKVYENYPVSKCQLANQCNYDCKLDKHARSGECFYDEKRNLQCICDYCEY; ends and bridges not checked; cysteine pairing not given here; UniProt P56552 1-54, looked up) [sweet-tasting protein obtained by recombinant production using the yeast Pichia pastoris]”, for which the “R1 = Variant EC50/WT EC50” value stood at 0.5 and the “Max ΔF/F0” value stood at 1.00 ± 0.05. For the same molecule, the EC50 (brazzein) was 58.0 ± 10.5 mg/L.

Consider thaumatin, for which the “R1 = Variant EC50/WT EC50” value was 0.6 and the “Max ΔF/F0” value is recorded as 0.74 ± 0.04.

As to `COC(=O)[C@H](Cc1ccccc1)NC(=O)[C@H](CC(=O)O)NCCC(C)(C)C` [Neotame], the “R1 = Variant EC50/WT EC50” value is reported as 0.8 and the “Max ΔF/F0” value came to 0.79 ± 0.02. The EC50 (read-out: EC50) stood at 0.98 ± 0.07 µM.

`C[C@H](CC[C@@H](O[C@@H]1O[C@H](CO[C@@H]2O[C@H](CO)[C@@H](O)[C@H](O)[C@H]2O)[C@@H](O)[C@H](O)[C@H]1O[C@@H]1O[C@H](CO)[C@@H](O)[C@H](O)[C@H]1O)C(C)(C)O)[C@H]1CC[C@@]2(C)[C@@H]3CC=C4[C@@H](CC[C@H](O[C@@H]5O[C@H](CO[C@@H]6O[C@H](CO)[C@@H](O)[C@H](O)[C@H]6O)[C@@H](O)[C@H](O)[C@H]5O)C4(C)C)[C@]3(C)[C@H](O)C[C@]12C` [Mogroside V, mogroside V]: the “R1 = Variant EC50/WT EC50” value is recorded as 0.7 and the “Max ΔF/F0” value is reported as 1.14 ± 0.02. Further, the half-maximal effective concentration (EC50) (read-out: EC50) was 22 ± 1.3 µM.

In the case of `COc1ccc(CCC(=O)c2c(O)cc(O[C@@H]3O[C@H](CO)[C@@H](O)[C@H](O)[C@H]3O[C@@H]3O[C@@H](C)[C@H](O)[C@@H](O)[C@H]3O)cc2O)cc1O` [NHDC, neohesperidin dihydrochalcone], the “R1 = Variant EC50/WT EC50” value came to 0.7 and the “Max ΔF/F0” value is on record as 1.00 ± 0.02. Also, the EC50 (read-out: EC50) was 34.2 ± 15.2 µM.

B1: thaumatin (protein)
chain: ATFEIVNRCSYTVWAAASKGDAALDAGGRQLNSGESWTINVEPGTKGGKIWARTDCYFDDSGSGICKTGDCGGLLRCKRFGRPPTTLAEFSLNQYGKDYIDISNIKGFNVPMDFSPTTRGCRGVRCAADIVGQCPAKLKAPGGGCNDACTVFQTSEYCCTTGKCGPTEYSRFFKRLCPDAFSYVLDKPTTVTCPGSSNYRVTFCPTA
modifications: Eight disulfides
notes: sweet-tasting plant protein, E957
Regarding B1, the EC50 (read-out: EC50) is 6.5 ± 0.9 µM.
